Source: patent US20160227778A1, “SEED DRESSING FOR CONTROLLING PHYTOPATHOGENIC FUNGI” (BAYER INTELLECTUAL PROPERTY GMBH, priority 2004, published 2016)

Legend:
Format in all cases: in vivo
[1] = system: Rhizoctonia solani; experiment: Rhizoctonia solani test (cotton)/seed treatment; settings: dry seed dressing, application rate 50 g/100 kg of seed, evaluated after 7-8 days, method of Abbot
Method: Rhizoctonia solani Test (Cotton)/Seed Treatment The active compounds are applied as dry seed dressing. This is prepared by extending the active compounds in question with ground minerals to give a finely pulverulent mixture which ensures uniform distribution on the seed surface. To dress the seed, the seed together with the seed dressing is shaken for 3 minutes in a closed glass bottle. 2×50 seed corns are sown in standardized soil in seed trays. Perlite infected with Rhizoctonia solani (5 ml/seed tray) is scattered between the seed and covered with Lecaton, and the seeds are then cultivated in a greenhouse at a temperature of about 22° C. and 15 hours of light per day. After 7-8 days, all the emerged and diseased plants are evaluated. The effect is calculated by the method of Abbot. 0% means an efficacy which corresponds to that of the control, whereas an efficacy of 100% means that no infection is observed.

[2] = system: Pyrenophora graminea; experiment: Pyrenophora graminea test (barley)/seed treatment/outdoor trial; settings: summer barley, infected seed, outdoor trial, application rate 10 g/100 kg of seed, evaluated at begin of heading
Method: Pyrenophora graminea Test (Barley)/Seed Treatment/Outdoor Trial
Cereal species: Summer barley Plot size: 2 m^2 Amount of seed per plot: 40 g Number of repetitions: 3 Development stage at the time of evaluation: Begin of heading
The active compounds are applied as a commercial formulation.
For dressing, the preparation is initially charged in a dressing beaker and placed on a dressing shaker. The infected seed is added and shaken for about 2-3 min, until homogenization is achieved.
After preparing the soil in a customary manner, outdoor sowing is carried out at a time which favours infection by the disease.
Evaluation is carried out at a time when all the disease symptoms are clearly present. 0% means an efficacy which corresponds to that of the control, whereas an efficacy of 100% means that no infection is observed.

[3] = system: Rhizoctonia solani; experiment: Rhizoctonia solani test (rice)/seed treatment; settings: rice (cultivar Koshihikari), seed dressing, application rate 200 g/100 kg of seed, evaluated seven days after inoculation
Method: Rhizoctonia solani Test (Rice)/Seed Treatment Rice seed (cultivar Koshihikari) is soaked at 15° C. in distilled water for 10 days, transferred into fresh water and, whilst being ventilated, soaked at 32° C. for 1 day. The seed is then dried at room temperature for a number of hours. 7.6 mg of the test substance are dissolved in 200 μl of acetone in a test vessel, an aliquot of seed (corresponding to 3.8 g of dry seed) is added, the samples mixed and the acetone is aspirated. The seed is sown on soil in a plastic vessel having a diameter of 7.5 cm and cultivated in an incubator at 32° C. with high atmospheric humidity in the dark for 3 days. The seedlings are then cultivated in a greenhouse at on average 21° C. for 2 weeks. In each case 5 seedlings are transferred into 5 plastic vessels having a diameter of 12 cm and cultivated in a greenhouse at on average 25° C. for 5-6 weeks. Mycelia of Rhizoctonia solani which had been grown on sterile barley corns are placed at the foot of the rice plant (5 cm from the soil surface) and incubated in a glass chamber with high atmospheric humidity at on average 27° C. Seven days after the inoculation, the degree of infection is evaluated and the efficacy is calculated. [table]

[4] = system: Ustilago nuda; experiment: Ustilago nuda test (barley)/seed treatment/outdoor trial; settings: summer barley, infected seed, outdoor trial, application rate 10 g/100 kg of seed, evaluated at begin to middle of blossom
Method: Ustilago nuda Test (Barley)/Seed Treatment/Outdoor Trial Cereal species: Summer barley Amount of seed per plot: 40 g Plot size: 2 m^2 Number of repetitions: 3 Development stage: Begin to middle of blossom The active compounds are applied as a commercial formulation. For dressing, the preparation is initially charged in a dressing beaker and placed on a dressing shaker. The infected seed is added and shaken for about 2-3 min, until homogenization is achieved. After preparing the soil in a customary manner, outdoor sowing is carried out at a time which favours infection by the disease. Evaluation is carried out at a time when all the disease symptoms are clearly present. 0% means an efficacy which corresponds to that of the control, whereas an efficacy of 100% means that no infection is observed.

Cc1nn(C)c(F)c1C(=O)Nc1ccccc1C(C)CC(C)C (stereo not shown) [drawing 46]
Efficacy in % [1]: 100%

CC(C)CC(C)c1sccc1NC(=O)c1cn(C)nc1C(F)(F)F (stereo not shown) [drawing 47]
Efficacy in % [1]: 100%

Cc1nn(C)c(F)c1C(=O)Nc1ccccc1C(C)CC(C)C (stereo not shown) [drawing 48]
Efficacy in % [2]: 97%

CC(C)CC(C)c1sccc1NC(=O)c1cn(C)nc1C(F)(F)F (stereo not shown) [drawing 49]
Efficacy in % [2]: 97%

Cc1nn(C)c(F)c1C(=O)Nc1ccccc1C(C)CC(C)C (stereo not shown) [drawing 50]
Efficacy in % [3]: 91%

Cc1nn(C)c(F)c1C(=O)Nc1ccccc1C(C)CC(C)C (stereo not shown) [drawing 51]
Efficacy in % [4]: 100%

CC(C)CC(C)c1sccc1NC(=O)c1cn(C)nc1C(F)(F)F (stereo not shown) [drawing 52]
Efficacy in % [4]: 99%
